In the supplement of paper PMC10307832:

Legend:
Assay in all cases: relative viability (nuclei count vs DMSO), 5 days (fraction); higher = more cells survive
[1] = system: 201T
Outline: (§1)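 Lung cancer cell lines were pin-tool dosed in 1536-well plates on the day after seeding, with either a lone drug or a fixed anchor-drug dose plus five library-drug doses (not always all listed) in √10 steps. Nuclei were counted on 4× images after 5 days. Relative viability is the ratio of treated-well to vehicle-well nuclei counts, with each value a median of duplicate plates.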

[2] = system: A-427
Outline: as §1

[3] = system: BEN
Outline: as §1

[4] = system: COR-L23
Outline: as §1

[5] = system: EKVX
Outline: as §1

[6] = system: EMC-BAC-2
Outline: as §1

[7] = system: EPLC-272H
Outline: as §1

[8] = system: HCC-44
Outline: as §1

[9] = system: HCC-827
Outline: as §1

[10] = system: LCLC-103H
Outline: as §1

[11] = system: LK-2
Outline: as §1

[12] = system: LXF-289
Outline: as §1

`O=c1[nH]c2ccccc2n1C1CCN(CCCC(c2ccc(F)cc2)c2ccc(F)cc2)CC1` [Pimozide] + Cc1cc(Nc2cc(N3CCN(C)CC3)nc(Sc3ccc(NC(=O)C4CC4)cc3)n2)n[nH]1 [Tozasertib] (partner 0.1 µM) was tested. Which relative viability ([1]; first compound 0.08 µM) did it give?
Its relative viability is 0.88.

What about the relative viability ([1]; first compound 0.253 µM) of the same compound?
The relative viability was 0.94.

What about the relative viability ([1]; first compound 0.8 µM) of the same compound?
The relative viability was 0.871.

What about the relative viability ([1]; first compound 2.53 µM) of the same compound?
The relative viability was 0.747.

And the relative viability ([1]; first compound 8 µM)?
The relative viability was 0.636.

And the relative viability ([2]; first compound 0.08 µM)?
The relative viability was 0.194.

What about the relative viability ([2]; first compound 0.253 µM) of the same compound?
The relative viability was 0.189.

What about the relative viability ([2]; first compound 0.8 µM) of the same compound?
The relative viability was 0.222.

And the relative viability ([2]; first compound 2.53 µM)?
The relative viability was 0.16.

What about the relative viability ([2]; first compound 8 µM) of the same compound?
The relative viability was 0.208.

What about the relative viability ([3]; first compound 0.08 µM) of the same compound?
The relative viability was 0.465.

What about the relative viability ([3]; first compound 0.253 µM) of the same compound?
The relative viability was 0.548.

And the relative viability ([3]; first compound 0.8 µM)?
The relative viability was 0.427.

What about the relative viability ([3]; first compound 2.53 µM) of the same compound?
The relative viability was 0.471.

And the relative viability ([3]; first compound 8 µM)?
The relative viability was 0.422.

What about the relative viability ([4]; first compound 0.08 µM) of the same compound?
The relative viability was 0.194.

And the relative viability ([4]; first compound 0.253 µM)?
The relative viability was 0.183.

And the relative viability ([4]; first compound 0.8 µM)?
Its relative viability is 0.191.

What about the relative viability ([4]; first compound 2.53 µM) of the same compound?
The relative viability was 0.153.

What about the relative viability ([4]; first compound 8 µM) of the same compound?
The relative viability was 0.185.

What about the relative viability ([5]; first compound 0.08 µM) of the same compound?
The relative viability was 0.35.

What about the relative viability ([5]; first compound 0.253 µM) of the same compound?
The relative viability was 0.321.

What about the relative viability ([5]; first compound 0.8 µM) of the same compound?
Its relative viability is 0.36.

What about the relative viability ([5]; first compound 2.53 µM) of the same compound?
Its relative viability is 0.315.

And the relative viability ([5]; first compound 8 µM)?
The relative viability was 0.388.

And the relative viability ([6]; first compound 0.08 µM)?
The relative viability was 0.292.

And the relative viability ([6]; first compound 0.253 µM)?
The relative viability was 0.284.

And the relative viability ([6]; first compound 0.8 µM)?
The relative viability was 0.272.

What about the relative viability ([6]; first compound 2.53 µM) of the same compound?
Its relative viability is 0.225.

And the relative viability ([6]; first compound 8 µM)?
Its relative viability is 0.297.

What about the relative viability ([7]; first compound 0.08 µM) of the same compound?
Its relative viability is 0.193.

And the relative viability ([7]; first compound 0.253 µM)?
The relative viability was 0.241.

What about the relative viability ([7]; first compound 0.8 µM) of the same compound?
Its relative viability is 0.33.

What about the relative viability ([7]; first compound 2.53 µM) of the same compound?
The relative viability was 0.176.

And the relative viability ([7]; first compound 8 µM)?
Its relative viability is 0.189.

What about the relative viability ([8]; first compound 0.08 µM) of the same compound?
Its relative viability is 1.16.

And the relative viability ([8]; first compound 0.253 µM)?
Its relative viability is 0.918.

What about the relative viability ([8]; first compound 0.8 µM) of the same compound?
The relative viability was 0.811.

And the relative viability ([8]; first compound 2.53 µM)?
The relative viability was 0.499.

What about the relative viability ([8]; first compound 8 µM) of the same compound?
Its relative viability is 0.983.

And the relative viability ([9]; first compound 0.253 µM)?
The relative viability was 0.387.

And the relative viability ([9]; first compound 0.8 µM)?
Its relative viability is 0.368.

What about the relative viability ([9]; first compound 2.53 µM) of the same compound?
Its relative viability is 0.385.

What about the relative viability ([9]; first compound 8 µM) of the same compound?
Its relative viability is 0.405.

And the relative viability ([10]; first compound 0.08 µM)?
The relative viability was 0.353.

What about the relative viability ([10]; first compound 0.253 µM) of the same compound?
The relative viability was 0.409.

And the relative viability ([10]; first compound 0.8 µM)?
The relative viability was 0.361.

What about the relative viability ([10]; first compound 2.53 µM) of the same compound?
Its relative viability is 0.422.

What about the relative viability ([10]; first compound 8 µM) of the same compound?
Its relative viability is 0.446.

And the relative viability ([11]; first compound 0.08 µM)?
Its relative viability is 0.173.

What about the relative viability ([11]; first compound 0.253 µM) of the same compound?
Its relative viability is 0.178.

What about the relative viability ([11]; first compound 2.53 µM) of the same compound?
The relative viability was 0.167.

What about the relative viability ([11]; first compound 8 µM) of the same compound?
The relative viability was 0.171.

What about the relative viability ([12]; first compound 0.08 µM) of the same compound?
Its relative viability is 0.208.

What about the relative viability ([12]; first compound 0.253 µM) of the same compound?
The relative viability was 0.167.
